Test [1] has as its target T1, Cyclin-dependent kinase-like 2 (Homo sapiens) (UniProt Q92772).
T1 sequence (whole entry): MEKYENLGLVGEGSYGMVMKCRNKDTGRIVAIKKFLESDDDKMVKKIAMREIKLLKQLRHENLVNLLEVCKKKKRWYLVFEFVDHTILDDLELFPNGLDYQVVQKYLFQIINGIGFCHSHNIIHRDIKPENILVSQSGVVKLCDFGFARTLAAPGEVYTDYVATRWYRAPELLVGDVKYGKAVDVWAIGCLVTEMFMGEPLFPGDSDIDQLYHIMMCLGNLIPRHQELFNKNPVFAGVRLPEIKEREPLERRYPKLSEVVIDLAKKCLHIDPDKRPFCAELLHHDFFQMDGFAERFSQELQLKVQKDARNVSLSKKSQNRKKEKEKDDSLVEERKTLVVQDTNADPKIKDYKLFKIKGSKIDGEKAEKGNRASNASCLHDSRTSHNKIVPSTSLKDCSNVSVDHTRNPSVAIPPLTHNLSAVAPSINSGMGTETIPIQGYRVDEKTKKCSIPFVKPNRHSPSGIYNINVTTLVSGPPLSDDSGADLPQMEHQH
As to the kind of experiment: Inhibition of CDKL2 (unknown origin) assessed as residual activity at 1000 nM by KINOMEscan analysis relative to control.

Test [2] relates to Epidermal growth factor receptor (Homo sapiens), P00533 [UNDEFINED MUTATION]. As to the kind of experiment: Inhibition of EGFR L747-S752del/P753S mutant (unknown origin) assessed as residual activity at 1000 nM by KINOMEscan analysis relative to control.
For test [3], the system named is Receptor-type tyrosine-protein kinase FLT3 (Homo sapiens), P36888 [D835H]. The test can be described thus: Inhibition of FLT3 D835H mutant (unknown origin) assessed as residual activity at 1000 nM by KINOMEscan analysis relative to control.
Test [4] deals with T2, Serine/threonine-protein kinase ICK (Homo sapiens) (UniProt Q9UPZ9).
T2 sequence (whole entry): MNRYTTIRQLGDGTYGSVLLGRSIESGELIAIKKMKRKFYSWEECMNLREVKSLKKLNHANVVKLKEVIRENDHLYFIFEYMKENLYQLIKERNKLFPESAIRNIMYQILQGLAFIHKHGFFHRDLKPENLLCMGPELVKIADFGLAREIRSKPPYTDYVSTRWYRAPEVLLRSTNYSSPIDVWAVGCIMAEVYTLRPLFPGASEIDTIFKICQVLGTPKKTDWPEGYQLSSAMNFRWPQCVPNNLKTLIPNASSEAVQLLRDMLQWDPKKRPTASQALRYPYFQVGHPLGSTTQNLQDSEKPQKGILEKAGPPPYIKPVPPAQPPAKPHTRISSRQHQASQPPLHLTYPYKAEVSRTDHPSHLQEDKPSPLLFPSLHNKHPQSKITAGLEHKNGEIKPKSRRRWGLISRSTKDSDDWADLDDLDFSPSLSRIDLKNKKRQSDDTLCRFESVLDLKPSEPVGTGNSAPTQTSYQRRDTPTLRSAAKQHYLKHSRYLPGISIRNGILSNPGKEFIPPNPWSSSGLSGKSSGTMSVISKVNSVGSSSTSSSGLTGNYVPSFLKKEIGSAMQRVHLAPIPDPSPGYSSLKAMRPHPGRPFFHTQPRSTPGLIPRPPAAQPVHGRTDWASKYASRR
The test can be described thus: Inhibition of ICK (unknown origin) assessed as residual activity at 1000 nM by KINOMEscan analysis relative to control.

For test [5], the target named is MAP/microtubule affinity-regulating kinase 3 (Homo sapiens) (UniProt P27448). As to the kind of experiment: Inhibition of MARK3 (unknown origin) assessed as residual activity at 1000 nM by KINOMEscan analysis relative to control.
Test [6] deals with T3, Serine/threonine-protein kinase D2 (Homo sapiens) (UniProt Q9BZL6).
T3 sequence (whole entry): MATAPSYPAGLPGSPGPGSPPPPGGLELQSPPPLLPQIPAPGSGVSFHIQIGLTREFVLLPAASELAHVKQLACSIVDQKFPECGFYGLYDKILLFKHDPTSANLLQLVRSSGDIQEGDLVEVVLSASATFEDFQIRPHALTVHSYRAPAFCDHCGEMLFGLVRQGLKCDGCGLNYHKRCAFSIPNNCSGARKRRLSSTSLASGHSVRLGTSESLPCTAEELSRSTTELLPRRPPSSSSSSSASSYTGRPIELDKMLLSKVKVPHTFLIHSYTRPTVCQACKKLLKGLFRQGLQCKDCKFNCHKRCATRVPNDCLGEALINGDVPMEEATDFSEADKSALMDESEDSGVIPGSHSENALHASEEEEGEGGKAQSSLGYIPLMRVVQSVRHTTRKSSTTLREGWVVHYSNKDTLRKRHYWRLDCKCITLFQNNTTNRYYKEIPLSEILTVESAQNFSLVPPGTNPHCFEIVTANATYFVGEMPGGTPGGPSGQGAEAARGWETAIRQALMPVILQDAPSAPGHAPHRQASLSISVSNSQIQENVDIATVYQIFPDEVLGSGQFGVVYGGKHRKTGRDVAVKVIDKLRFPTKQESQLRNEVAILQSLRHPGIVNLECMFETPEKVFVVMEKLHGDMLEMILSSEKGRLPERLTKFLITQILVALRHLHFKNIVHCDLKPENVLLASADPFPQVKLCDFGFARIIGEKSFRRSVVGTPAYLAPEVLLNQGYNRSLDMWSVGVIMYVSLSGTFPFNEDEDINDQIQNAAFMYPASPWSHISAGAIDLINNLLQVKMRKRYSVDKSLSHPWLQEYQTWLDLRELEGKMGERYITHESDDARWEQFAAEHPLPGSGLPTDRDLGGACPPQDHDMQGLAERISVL
As to the kind of experiment: Inhibition of PRKD2 (unknown origin) assessed as residual activity at 1000 nM by KINOMEscan analysis relative to control.

In test [7] the target is Serine/threonine-protein kinase SBK1 (Homo sapiens) (UniProt Q52WX2). The test can be described thus: Inhibition of SBK1 (unknown origin) assessed as residual activity at 1000 nM by KINOMEscan analysis relative to control.
Test [8] has as its target Non-receptor tyrosine-protein kinase TYK2 (Homo sapiens) (UniProt P29597). As to the kind of experiment: Inhibition of TYK2 JH1 catalytic domain (unknown origin) assessed as residual activity at 1000 nM by KINOMEscan analysis relative to control.

For 2 compounds, Activity results are on record in ChEMBL document CHEMBL5678818, “Discovery of potent SOS1 inhibitors that block RAS activation via disruption of the RAS-SOS1 interaction” (Proc Natl Acad Sci U S A, 2019).

Non-receptor tyrosine-protein kinase TYK2 (Homo sapiens), sequence (P29597 whole entry, the tested form may be a part): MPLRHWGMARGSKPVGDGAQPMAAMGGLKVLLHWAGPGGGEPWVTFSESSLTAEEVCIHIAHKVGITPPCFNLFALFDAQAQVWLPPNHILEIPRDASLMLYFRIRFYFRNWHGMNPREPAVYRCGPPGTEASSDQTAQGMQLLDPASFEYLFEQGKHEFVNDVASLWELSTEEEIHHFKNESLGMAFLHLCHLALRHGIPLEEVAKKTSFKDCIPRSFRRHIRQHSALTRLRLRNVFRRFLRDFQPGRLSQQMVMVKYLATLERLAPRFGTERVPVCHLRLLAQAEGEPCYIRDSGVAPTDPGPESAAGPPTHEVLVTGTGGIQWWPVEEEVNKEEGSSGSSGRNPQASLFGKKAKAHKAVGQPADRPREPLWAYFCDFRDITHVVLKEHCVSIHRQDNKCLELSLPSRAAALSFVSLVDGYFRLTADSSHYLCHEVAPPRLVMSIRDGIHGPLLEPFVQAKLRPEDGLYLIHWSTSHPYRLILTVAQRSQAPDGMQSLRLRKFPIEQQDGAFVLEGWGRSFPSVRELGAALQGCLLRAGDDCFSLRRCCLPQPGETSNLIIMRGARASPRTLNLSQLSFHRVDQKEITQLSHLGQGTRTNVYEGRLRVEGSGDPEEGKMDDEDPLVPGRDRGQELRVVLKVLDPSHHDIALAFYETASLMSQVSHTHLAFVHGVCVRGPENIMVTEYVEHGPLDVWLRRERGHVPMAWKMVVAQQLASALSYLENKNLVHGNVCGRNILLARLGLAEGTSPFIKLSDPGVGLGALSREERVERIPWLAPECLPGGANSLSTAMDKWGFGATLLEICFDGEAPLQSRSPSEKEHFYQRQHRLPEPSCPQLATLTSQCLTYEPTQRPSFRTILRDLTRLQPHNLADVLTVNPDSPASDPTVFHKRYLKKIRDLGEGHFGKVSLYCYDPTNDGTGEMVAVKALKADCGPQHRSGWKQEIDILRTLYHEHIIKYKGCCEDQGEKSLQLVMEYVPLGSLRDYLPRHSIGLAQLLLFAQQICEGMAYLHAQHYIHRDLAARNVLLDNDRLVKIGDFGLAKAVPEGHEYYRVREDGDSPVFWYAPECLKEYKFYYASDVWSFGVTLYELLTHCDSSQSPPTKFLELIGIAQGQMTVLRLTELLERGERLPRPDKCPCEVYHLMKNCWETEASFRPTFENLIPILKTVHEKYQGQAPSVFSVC
MAP/microtubule affinity-regulating kinase 3 (Homo sapiens), sequence (P27448 whole entry, looked up): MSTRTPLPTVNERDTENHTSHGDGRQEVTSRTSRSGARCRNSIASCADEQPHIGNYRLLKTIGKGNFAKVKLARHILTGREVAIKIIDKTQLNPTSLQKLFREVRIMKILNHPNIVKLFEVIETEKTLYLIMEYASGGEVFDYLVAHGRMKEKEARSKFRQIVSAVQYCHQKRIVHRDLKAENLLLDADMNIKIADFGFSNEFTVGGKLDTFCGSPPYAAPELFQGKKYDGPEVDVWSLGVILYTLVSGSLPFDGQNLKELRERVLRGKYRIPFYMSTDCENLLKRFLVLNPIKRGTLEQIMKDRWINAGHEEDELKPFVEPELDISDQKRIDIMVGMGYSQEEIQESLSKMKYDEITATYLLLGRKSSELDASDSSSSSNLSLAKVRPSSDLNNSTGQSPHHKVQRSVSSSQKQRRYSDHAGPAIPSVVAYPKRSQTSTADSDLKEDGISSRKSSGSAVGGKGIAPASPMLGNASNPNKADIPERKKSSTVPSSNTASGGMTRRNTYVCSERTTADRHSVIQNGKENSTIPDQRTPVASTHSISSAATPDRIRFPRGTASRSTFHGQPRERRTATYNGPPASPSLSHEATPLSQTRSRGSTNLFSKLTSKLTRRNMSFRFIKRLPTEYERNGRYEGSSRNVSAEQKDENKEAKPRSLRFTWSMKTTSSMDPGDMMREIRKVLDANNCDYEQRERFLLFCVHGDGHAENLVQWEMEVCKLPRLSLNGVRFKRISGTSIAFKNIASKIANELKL
Serine/threonine-protein kinase SBK1 (Homo sapiens), sequence (Q52WX2 whole entry, the tested form may be a part): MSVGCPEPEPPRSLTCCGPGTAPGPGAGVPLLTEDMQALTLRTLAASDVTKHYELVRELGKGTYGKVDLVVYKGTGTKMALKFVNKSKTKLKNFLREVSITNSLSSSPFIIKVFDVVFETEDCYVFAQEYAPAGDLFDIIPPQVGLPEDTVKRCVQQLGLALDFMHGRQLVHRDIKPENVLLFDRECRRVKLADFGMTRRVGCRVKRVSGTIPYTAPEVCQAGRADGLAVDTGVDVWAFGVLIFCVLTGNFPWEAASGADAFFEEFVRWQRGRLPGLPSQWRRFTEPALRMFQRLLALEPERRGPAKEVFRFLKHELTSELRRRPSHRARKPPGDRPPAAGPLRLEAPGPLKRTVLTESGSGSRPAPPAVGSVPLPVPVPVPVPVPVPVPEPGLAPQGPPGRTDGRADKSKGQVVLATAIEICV
Epidermal growth factor receptor (Homo sapiens), P00533 [UNDEFINED MUTATION], sequence (P00533 whole entry, looked up, stated change not applied): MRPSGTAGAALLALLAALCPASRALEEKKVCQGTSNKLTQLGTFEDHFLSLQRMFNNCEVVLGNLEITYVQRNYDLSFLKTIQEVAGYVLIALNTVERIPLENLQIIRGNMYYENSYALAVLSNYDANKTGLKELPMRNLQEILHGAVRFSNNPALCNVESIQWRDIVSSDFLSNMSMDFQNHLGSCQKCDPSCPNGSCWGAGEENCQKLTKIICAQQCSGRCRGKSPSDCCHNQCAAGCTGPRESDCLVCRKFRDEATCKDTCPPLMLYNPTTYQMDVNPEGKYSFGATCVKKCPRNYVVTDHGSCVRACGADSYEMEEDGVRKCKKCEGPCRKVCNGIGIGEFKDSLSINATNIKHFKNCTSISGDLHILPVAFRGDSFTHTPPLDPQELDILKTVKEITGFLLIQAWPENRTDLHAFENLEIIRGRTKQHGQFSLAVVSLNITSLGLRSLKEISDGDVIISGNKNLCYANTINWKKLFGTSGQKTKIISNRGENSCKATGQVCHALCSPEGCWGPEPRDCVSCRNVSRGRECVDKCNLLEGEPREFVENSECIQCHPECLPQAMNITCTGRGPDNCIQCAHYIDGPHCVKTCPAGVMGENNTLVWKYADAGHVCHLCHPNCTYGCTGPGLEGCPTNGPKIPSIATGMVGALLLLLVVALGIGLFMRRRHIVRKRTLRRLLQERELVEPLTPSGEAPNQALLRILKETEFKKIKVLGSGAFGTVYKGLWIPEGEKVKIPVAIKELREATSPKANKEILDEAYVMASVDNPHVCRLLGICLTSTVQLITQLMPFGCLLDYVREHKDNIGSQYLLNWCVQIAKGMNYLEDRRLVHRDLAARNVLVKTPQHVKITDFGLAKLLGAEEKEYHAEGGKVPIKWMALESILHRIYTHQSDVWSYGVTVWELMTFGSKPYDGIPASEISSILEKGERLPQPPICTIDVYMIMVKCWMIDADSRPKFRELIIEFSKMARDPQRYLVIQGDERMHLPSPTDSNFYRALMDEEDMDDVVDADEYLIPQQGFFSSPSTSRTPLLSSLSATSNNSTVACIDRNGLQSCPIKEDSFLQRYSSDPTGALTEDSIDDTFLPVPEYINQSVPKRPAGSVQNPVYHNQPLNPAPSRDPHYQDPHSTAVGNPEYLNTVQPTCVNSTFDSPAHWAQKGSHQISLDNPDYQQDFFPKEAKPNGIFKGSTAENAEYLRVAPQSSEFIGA

Regarding `COc1cc2ncnc(N[C@H](C)c3cccc4ccccc34)c2cc1OC`, the Activity in test [1] came out at 97%; in test [2] it was 9.3%; in test [3] it was 96%; in test [4], 94%; in test [5] it was 64%; in test [6], 90%. Besides, the Activity in test [7] was determined as 86%; in test [8], 82%.
Take `COc1cc2nc(C)nc(N[C@H](C)c3cccc(-c4cn[nH]c4)c3)c2cc1OC`: the Activity was 81% in test [1]; 93% in test [2]; 100% in test [3]; 78% in test [4]; 100% in test [5]; 100% in test [6]. The Activity was found to be 85% in test [7] and 77% in test [8].
